These results are taken from patent US11040981B2, “Pyrrolotriazine compounds and methods of inhibiting TAM kinases” (Syros Pharmaceuticals, Inc., priority 2017, dated 2021).

For one assay, the target named is T1, AXL (Homo sapiens, UniProt P30530).
T1 sequence (P30530 26-894): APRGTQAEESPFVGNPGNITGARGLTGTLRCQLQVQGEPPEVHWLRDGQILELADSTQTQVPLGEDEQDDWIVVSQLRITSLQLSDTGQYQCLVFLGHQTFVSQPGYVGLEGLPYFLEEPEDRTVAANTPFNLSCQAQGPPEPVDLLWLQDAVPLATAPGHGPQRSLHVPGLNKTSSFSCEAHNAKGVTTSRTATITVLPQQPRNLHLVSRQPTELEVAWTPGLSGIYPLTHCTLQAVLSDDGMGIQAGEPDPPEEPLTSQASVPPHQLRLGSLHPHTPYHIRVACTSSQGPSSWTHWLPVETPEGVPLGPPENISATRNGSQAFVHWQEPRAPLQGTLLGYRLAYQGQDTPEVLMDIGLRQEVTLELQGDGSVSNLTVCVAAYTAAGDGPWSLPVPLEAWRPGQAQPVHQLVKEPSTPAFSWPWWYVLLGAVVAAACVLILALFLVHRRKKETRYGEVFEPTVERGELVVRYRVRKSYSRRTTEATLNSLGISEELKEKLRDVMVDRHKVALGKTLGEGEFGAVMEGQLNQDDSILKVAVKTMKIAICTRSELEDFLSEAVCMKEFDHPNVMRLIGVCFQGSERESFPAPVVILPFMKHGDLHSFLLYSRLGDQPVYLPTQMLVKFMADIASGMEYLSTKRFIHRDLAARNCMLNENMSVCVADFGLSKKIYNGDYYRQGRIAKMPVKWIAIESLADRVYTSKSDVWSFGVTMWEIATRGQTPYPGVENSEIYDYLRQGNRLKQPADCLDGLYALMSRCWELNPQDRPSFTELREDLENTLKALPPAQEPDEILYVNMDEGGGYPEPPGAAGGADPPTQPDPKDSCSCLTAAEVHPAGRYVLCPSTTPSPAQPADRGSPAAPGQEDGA
The assay is described as follows: TR-FRET kinase activity assay, AXL. The class given is biochemical. To be noted: ATP at Km, 60 minutes. The procedure, abridged:
(§1)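 Compounds were tested against each kinase with ATP set at its own Km and a labelled tyrosine peptide substrate. Following one hour at room temperature in buffer containing 10 mM MgCl2 and 1 mM DTT, phosphorylated product was detected by Europium antibody TR-FRET after EDTA quench, and IC50 values were calculated.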

For another assay, the target named is T2, TYRO3 (Homo sapiens, UniProt Q06418).
T2 sequence (Q06418 41-890): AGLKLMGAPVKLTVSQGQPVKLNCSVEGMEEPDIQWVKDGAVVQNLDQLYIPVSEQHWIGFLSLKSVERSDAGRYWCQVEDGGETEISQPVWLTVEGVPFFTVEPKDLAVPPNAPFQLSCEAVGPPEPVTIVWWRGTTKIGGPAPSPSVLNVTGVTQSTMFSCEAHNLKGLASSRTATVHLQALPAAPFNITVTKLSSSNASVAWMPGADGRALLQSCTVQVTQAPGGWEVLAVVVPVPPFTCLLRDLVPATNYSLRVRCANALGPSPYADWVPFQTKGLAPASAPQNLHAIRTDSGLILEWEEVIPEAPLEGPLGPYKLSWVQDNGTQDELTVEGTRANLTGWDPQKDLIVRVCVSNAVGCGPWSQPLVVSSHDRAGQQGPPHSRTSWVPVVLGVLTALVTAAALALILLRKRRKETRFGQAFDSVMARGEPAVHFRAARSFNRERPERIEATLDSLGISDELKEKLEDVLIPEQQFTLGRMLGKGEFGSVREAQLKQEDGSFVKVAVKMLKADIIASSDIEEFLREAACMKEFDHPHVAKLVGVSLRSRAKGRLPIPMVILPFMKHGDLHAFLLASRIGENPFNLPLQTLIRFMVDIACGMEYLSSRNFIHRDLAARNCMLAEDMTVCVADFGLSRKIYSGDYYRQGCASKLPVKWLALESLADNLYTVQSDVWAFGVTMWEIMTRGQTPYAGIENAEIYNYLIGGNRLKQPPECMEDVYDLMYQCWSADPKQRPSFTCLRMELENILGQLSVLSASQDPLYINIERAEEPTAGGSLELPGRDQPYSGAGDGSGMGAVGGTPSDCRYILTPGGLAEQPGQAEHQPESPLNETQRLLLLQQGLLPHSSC
As to the kind of experiment: TR-FRET kinase activity assay, TYRO3. The assay is classed as biochemical. To be noted: ATP at Km, 60 minutes. The procedure, abridged: as §1
(TR-FRET usually uses a lanthanide donor and a delayed reading to cut background.)

Broadly, the IC50 is the concentration at which inhibition is half-maximal. High values mean weaker potency in that assay, low ones greater potency in that assay.

Consider `COCC(C)Nc1ncc2c(-c3ccc4nccn4c3)cc(C3CCC(O)CC3)n2n1` (stereo not drawn) [Compound 193], for which the IC50 at AXL and at TYRO3 was at most 100 nM throughout.
Turning to `COC[C@H](C)Nc1ncc2c(-c3cn(C)nc3C)cc([C@H]3CC[C@H](O)CC3)n2n1` [Compound 260], the results for the half-inhibitory concentration (IC50) on AXL and against TYRO3 were 100 to 1000 nM and at most 100 nM, respectively.
As for `COC[C@H](C)Nc1ncc2c(-c3ccc(C(=O)N4CCCC4)cc3)cc([C@H]3CC[C@H](O)CC3)n2n1` [Compound 196], the 50% inhibitory concentration (IC50) at AXL and at TYRO3 was at most 100 nM throughout.
On to `COC[C@H](C)Nc1ncc2c(-c3cnn([C@@H]4CCOC4)c3)cc([C@H]3CC[C@H](O)CC3)n2n1` [Compound 242], for which the IC50 against AXL and against TYRO3 was at most 100 nM in each case.
As to `COC[C@H](C)Nc1ncc2c(-c3ccc4c(c3)CNC4=O)cc([C@H]3CC[C@H](O)CC3)n2n1` [Compound 252], the IC50 against AXL is 100 to 1000 nM; against TYRO3 it was at most 100 nM.
In the case of `COC[C@H](C)Nc1ncc2c(-c3cn(C[Si](C)(C)C)nn3)cc([C@H]3CC[C@H](O)CC3)n2n1` [Compound 248], the results for the IC50 at AXL and against TYRO3 were 100 to 1000 nM and at most 100 nM, respectively.
`COC[C@H](C)Nc1ncc2c(-c3cc(C)ccn3)cc([C@H]3CC[C@H](O)CC3)n2n1` [Compound 257]: the 50% inhibitory concentration (IC50) fell in the range of 1000 to 10000 nM against AXL and 100 to 1000 nM against TYRO3.
For `COC[C@H](C)Nc1ncc2c(-c3cnn(C(C)(C)C)c3)cc([C@H]3CC[C@H](O)CC3)n2n1` [Compound 206], in that order: 100 to 1000 nM and at most 100 nM.
With `C[C@H](Nc1ncc2c(-c3ccc(CN4CCOCC4)cc3)cc([C@H]3CC[C@H](O)CC3)n2n1)[C@H]1CCCO1` [Compound 204], the IC50 fell in the range of 1000 to 10000 nM against AXL and 100 to 1000 nM on TYRO3.
With `CNC(=O)Cn1cc(-c2cc([C@H]3CC[C@H](O)CC3)n3nc(N[C@@H](C)COC)ncc23)cn1` [Compound 241], the results for the concentration for half-maximal inhibition (IC50) at AXL and against TYRO3 were 100 to 1000 nM and at most 100 nM, respectively.
For `COC[C@H](C)Nc1ncc2c(-c3ccc(N4CCOCC4)nc3)cc([C@H]3CC[C@H](O)CC3)n2n1` [Compound 254], the half-maximal inhibitory concentration (IC50) against AXL was 100 to 1000 nM; at TYRO3, at most 100 nM.
For the compound `C[C@@H](CC(F)(F)F)Nc1ncc2c(-c3ccc(CN4CCOCC4)cc3)cc([C@H]3CC[C@H](O)CC3)n2n1` [Compound 203], the IC50 at AXL and at TYRO3 was at most 100 nM in each case.
